Test results: PubChem BioAssay AID1745844 (Carcinogenic Potency Database (CPDB), 2022)
Calls of active or inactive are those of the source. The rule behind the calls is not given here.

Tested on: rodent lifetime carcinogenesis bioassay, tumor incidence TD50
Test: chronic cancer bioassays in animals – CPDB, compiled studies (AID 1745844)

Compound: F
- carcinogen call (mouse, strain B6C3F1, females, in drinking water, site: any site (literature study), lesion: several types, types named in the paper, dosed 103 weeks, study length 104 weeks): negative (inactive)
- carcinogen call (mouse, strain B6C3F1, males, in drinking water, site: any site (literature study), lesion: several types, types named in the paper, dosed 103 weeks, study length 104 weeks): negative (inactive)
- carcinogen call (mouse, strain Charles River CD1, both sexes, in drinking water, site: any site (literature study), lesion: malignant tumor, dosed 129 weeks, study length 129 weeks): negative (inactive)
- carcinogen call (mouse, strain Charles River CD1, both sexes, in drinking water, site: any site (literature study), lesion: one or several types, types not named, dosed 129 weeks, study length 129 weeks): negative (inactive)
- carcinogen call (mouse, strain Charles River CD1, both sexes, in drinking water, site: liver, lesion: one or several types, types not named, dosed 129 weeks, study length 129 weeks): negative (inactive)
- carcinogen call (mouse, strain Charles River CD1, both sexes, in drinking water, site: lung, lesion: one or several types, types not named, dosed 129 weeks, study length 129 weeks): negative (inactive)
- carcinogen call (mouse, strain DBA, females, in feed, site: mammary gland, lesion: carcinoma, dosed 90 weeks, study length 90 weeks): negative (inactive)
- TD50 (rat, strain Fischer 344, females, in drinking water, site: any site (literature study), lesion: several types, types named in the paper, dosed 103 weeks, study length 104 weeks): 73.9 mg/kg/day (inactive)
- TD50 (rat, strain Fischer 344, males, in drinking water, site: any site (literature study), lesion: several types, types named in the paper, dosed 103 weeks, study length 104 weeks): 147 mg/kg/day
- TD50 (rat, strain Fischer 344, males, in drinking water, site: coccyx + humerus + subcutaneous tissue + vertebra, lesion: osteosarcoma, dosed 103 weeks, study length 104 weeks): 82.7 mg/kg/day
- TD50 (rat, strain Fischer 344, males, in drinking water, site: coccyx + humerus + vertebra, lesion: osteosarcoma, dosed 103 weeks, study length 104 weeks): 109 mg/kg/day

Compound: N[C@@H](Cc1cnc[nH]1)C(=O)O
- carcinogen call (rat, strain F344/DuCrj, females, in feed, site: liver, lesion: hepatocellular adenoma, dosed 104 weeks, study length 107 weeks): negative (inactive)
- TD50 (rat, strain F344/DuCrj, males, in feed, site: liver, lesion: hepatocellular adenoma, dosed 104 weeks, study length 107 weeks): 52200 mg/kg/day (inactive)

Compound: O=C(O)c1cc(=O)[nH]c(=O)[nH]1
- TD50 (rat, strain Fischer 344, males, in feed, site: Zymbal's gland, lesion: one or several types, types not named, dosed 104 weeks, study length 104 weeks): 2600 mg/kg/day
- TD50 (rat, strain Fischer 344, males, in feed, site: all sites, lesion: leukemia, dosed 104 weeks, study length 104 weeks): 1690 mg/kg/day
- TD50 (rat, strain Fischer 344, males, in feed, site: liver, lesion: hepatocellular adenoma, dosed 52 weeks, study length 52 weeks): 925 mg/kg/day
- TD50 (rat, strain Fischer 344, males, in feed, site: liver, lesion: hepatocellular adenoma, dosed 104 weeks, study length 104 weeks): 395 mg/kg/day

Compound: Cc1cccc(Nc2cc(Cl)nc(SCC(=O)NCCO)n2)c1C
- TD50 (mouse, strain CSb, females, in feed, site: liver, lesion: hepatocellular carcinoma, dosed 82 weeks, study length 82 weeks): 44.6 mg/kg/day
- TD50 (rat, strain Fischer 344, males, in feed, site: liver, lesion: hepatocellular carcinoma, dosed 75 weeks, study length 82 weeks): 6.49 mg/kg/day

Compound: FCC(F)(F)F
- carcinogen call (mouse, strain B6C3F1, females, inhaled, site: liver, lesion: hepatocellular adenoma, dosed 104 weeks, study length 104 weeks): negative (inactive)
- carcinogen call (mouse, strain B6C3F1, females, inhaled, site: liver, lesion: hepatocellular carcinoma, dosed 104 weeks, study length 104 weeks): negative (inactive)
- carcinogen call (mouse, strain B6C3F1, females, inhaled, site: lung, lesion: alveolar/bronchiolar tumor, dosed 104 weeks, study length 104 weeks): negative (inactive)
- TD50 (mouse, strain B6C3F1, males, inhaled, site: liver, lesion: hepatocellular adenoma, dosed 104 weeks, study length 104 weeks): 1.5e+06 mg/kg/day (inactive)
- TD50 (mouse, strain B6C3F1, males, inhaled, site: liver, lesion: hepatocellular carcinoma, dosed 104 weeks, study length 104 weeks): 260000 mg/kg/day (inactive)
- carcinogen call (mouse, strain B6C3F1, males, inhaled, site: lung, lesion: alveolar/bronchiolar tumor, dosed 104 weeks, study length 104 weeks): negative (inactive)
- TD50 (rat, strain Alpk:APfSD, males, inhaled, site: testis, lesion: Leydig-cell adenoma, dosed 104 weeks, study length 104 weeks): 29900 mg/kg/day
- TD50 (rat, strain Han-Ibm Wistar, females, inhaled, site: liver, lesion: hepatocellular carcinoma, dosed 108 weeks, study length 108 weeks): 2.8e+06 mg/kg/day (inactive)
- TD50 (rat, strain Han-Ibm Wistar, males, inhaled, site: liver, lesion: hepatocellular adenoma, dosed 108 weeks, study length 108 weeks): 70100 mg/kg/day (inactive)
- TD50 (rat, strain Han-Ibm Wistar, males, inhaled, site: liver, lesion: hepatocellular carcinoma, dosed 108 weeks, study length 108 weeks): 140000 mg/kg/day (inactive)
- carcinogen call (rat, strain Han-Ibm Wistar, males, inhaled, site: testis, lesion: interstitial-cell tumor, dosed 108 weeks, study length 108 weeks): negative (inactive)

Compound: CCCCN(N)CCCC
- TD50 (mouse, strain Swiss albino, females, in drinking water, site: forestomach, lesion: several types, types named in the paper, dosed 109 weeks, study length 109 weeks): 71.5 mg/kg/day
- TD50 (mouse, strain Swiss albino, females, in drinking water, site: forestomach, lesion: squamous-cell carcinoma, dosed 109 weeks, study length 109 weeks): 152 mg/kg/day
- TD50 (mouse, strain Swiss albino, females, in drinking water, site: forestomach, lesion: squamous-cell papilloma, dosed 109 weeks, study length 109 weeks): 95.9 mg/kg/day
- carcinogen call (mouse, strain Swiss albino, females, in drinking water, site: liver, lesion: angioma, dosed 109 weeks, study length 109 weeks): negative (inactive)
- TD50 (mouse, strain Swiss albino, females, in drinking water, site: lung, lesion: adenocarcinoma, dosed 109 weeks, study length 109 weeks): 133 mg/kg/day
- TD50 (mouse, strain Swiss albino, females, in drinking water, site: lung, lesion: adenoma, dosed 109 weeks, study length 109 weeks): 51.5 mg/kg/day
- TD50 (mouse, strain Swiss albino, females, in drinking water, site: lung, lesion: several types, types named in the paper, dosed 109 weeks, study length 109 weeks): 55.5 mg/kg/day
- TD50 (mouse, strain Swiss albino, males, in drinking water, site: forestomach, lesion: several types, types named in the paper, dosed 109 weeks, study length 109 weeks): 84.2 mg/kg/day
- TD50 (mouse, strain Swiss albino, males, in drinking water, site: forestomach, lesion: squamous-cell carcinoma, dosed 109 weeks, study length 109 weeks): 317 mg/kg/day
- TD50 (mouse, strain Swiss albino, males, in drinking water, site: forestomach, lesion: squamous-cell papilloma, dosed 109 weeks, study length 109 weeks): 109 mg/kg/day
- TD50 (mouse, strain Swiss albino, males, in drinking water, site: liver, lesion: hepatoma, benign, dosed 109 weeks, study length 109 weeks): 189 mg/kg/day
- TD50 (mouse, strain Swiss albino, males, in drinking water, site: liver, lesion: several types, types named in the paper, dosed 109 weeks, study length 109 weeks): 105 mg/kg/day
- TD50 (mouse, strain Swiss albino, males, in drinking water, site: lung, lesion: adenocarcinoma, dosed 109 weeks, study length 109 weeks): 82.3 mg/kg/day
- TD50 (mouse, strain Swiss albino, males, in drinking water, site: lung, lesion: adenoma, dosed 109 weeks, study length 109 weeks): 44.9 mg/kg/day
- TD50 (mouse, strain Swiss albino, males, in drinking water, site: lung, lesion: several types, types named in the paper, dosed 109 weeks, study length 109 weeks): 38.1 mg/kg/day
